Assay [1] deals with spinal cord injury (SCI) mice. The assay can be described thus: Hindlimb motor function of spinal cord injury (SCI) mice (BMS, TMS). The note with it: diosgenin 10 μmol/kg i.p. once a day for 7 days, vs vehicle. The class given is in vivo, mouse. Here is the method:
In the spinal cord injury model test, 7-week-old female ddY mice (SLC) were used. The mice were maintained with free access to food and water in a controlled environment (22±2° C., 50±5% humidity, 12-h light/dark cycle starting at 7:00 am). A contusion was created by dropping a 3.0 g weight once onto an exposed first lumbar vertebrae (L1) of each mouse from a height of 3 cm using stereotaxic apparatus (made by Narishige). One hour after surgery, the mice were randomly divided into a vehicle solution-treated group and a diosgenin-treated group, and then drug administration was initiated.
Diosgenin (10 μmol/kg) was intraperitoneally administered to SCI mice once a day for 7 days.
One hour after the last administration in Example 13 and Comparative Example 17, each mouse was moved to an open field (23.5 cm×16.5 cm×12.5 cm) and observed for behavior evaluation for 5 minutes. The locomotion behavior in the open field was evaluated using the Basso Mouse Scale (BMS), which is a general standard for evaluation of the hindlimb function of SCI model mice (FIG. 14A), and a 0-18-point Toyama Mouse Scale (TMS), which is a modified BMS devised by the inventors for better test accuracy, (FIG. 14B).
The new Toyama Mouse Scale (TMS), which is a modified BMS devised by the inventors for better test accuracy, was used in the hindlimb function of SCI mice.

Assay [2] concerns the target T1, 1,25D3-MARRS (Rattus norvegicus, UniProt P11598).
T1 construct: endogenous in cells; host or cells: primary cultured rat cortical neurons (SD, E17)
T1 sequence (P11598 25-505): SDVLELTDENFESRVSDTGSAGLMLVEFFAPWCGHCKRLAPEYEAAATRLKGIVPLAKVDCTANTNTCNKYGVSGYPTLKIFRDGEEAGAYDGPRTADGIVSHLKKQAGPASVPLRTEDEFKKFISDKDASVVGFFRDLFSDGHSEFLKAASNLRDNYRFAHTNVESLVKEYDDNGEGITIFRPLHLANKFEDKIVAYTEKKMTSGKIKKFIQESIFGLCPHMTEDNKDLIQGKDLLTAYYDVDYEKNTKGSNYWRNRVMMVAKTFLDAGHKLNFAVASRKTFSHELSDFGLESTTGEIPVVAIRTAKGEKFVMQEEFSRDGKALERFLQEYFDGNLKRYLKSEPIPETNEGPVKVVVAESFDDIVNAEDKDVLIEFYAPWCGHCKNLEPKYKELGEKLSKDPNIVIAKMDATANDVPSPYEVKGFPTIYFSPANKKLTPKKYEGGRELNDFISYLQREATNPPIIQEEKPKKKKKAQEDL
The assay can be described thus: Detection of luminescence resulting from 1,25D3-MARRS binding (cell surface-binding DHVD3). The note with it: diosgenin 0.1 μM or 10 μM added with DHVD3 0.1 μM, 10 minutes. The text has this: Embryos were removed from pregnant Sprague-Dawley rats (Japan SLC, Shizuoka, Japan) at 17 days of gestation. The cortices were dissected, and the dura mater was removed.
Primary cultured cortical neurons (SD, E17) were harvested into a 96-well white plate at a density of 0.5×10^5 cells/well. […] Horse radish peroxidase-conjugated goat anti-mouse IgG (1:2000) was used as a secondary antibody. The chemiluminescence of the antigen-antibody complex was detected using a GENios multi-plate reader (Tecan, Mannedorf, Zurich, Switzerland).

The subject of assay [3] is rat cortical neurons (SD E18). The assay can be described thus: Axon density after Aβ (1-42)-induced axonal atrophy with 1,25D3-MARRS neutralizing antibody. The class given is cell-based. The note with it: after Aβ (1-42) for 3 days; Ab099 clone 1:500; diosgenin 0.1 μM or 1 μM for 5 days. How it is done: Aβ (1-42) was incubated at 37° C. for four days for aggregation beforehand. […] After the 3-day treatment, a control antibody (normal rabbit IgG, 1:5000) was added to the cells, and the cells were incubated for 10 minutes and further treated with diosgenin (0.1 μM) for 5 days.
Seven to nine images were captured.

SMILES strings stand for the structures.

In the case of `C[C@@H]1CC[C@@]2(OC1)O[C@H]1C[C@H]3[C@@H]4CC=C5C[C@@H](O)CC[C@]5(C)[C@H]4CC[C@]3(C)[C@H]1[C@@H]2C` [diosgenin], the “hindlimb motor function (BMS and TMS)” value in assay [1] was “improved hindlimb motor function”. In addition, the “immunochemiluminescence intensity of cell surface-bound DHVD3 (replacement of DHVD3)” value in assay [2] is “remarkably decreased”. Also, the “diosgenin-induced axonal growth in cells where 1,25D3-MARRS was inhibited by the neutralizing antibody” value in assay [3] is “significantly suppressed”.

For the origin of these results see US20150126464A1, “THERAPEUTIC DRUG AND THERAPEUTIC METHOD FOR NEUROLOGICAL DISEASES INCLUDING ALZHEIMER'S DISEASE ASSOCIATED WITH 1,25D3-MARRS” (priority 2013, published 2015).
